Assays:
[1] = First-order rate constant of the compound; format: ADME
[2] = biological target: Thymidylate synthase (Mus musculus, UniProt P07607); test: Compound was evaluated for competitive inhibition of recombinant mouse thymidylate synthase
[3] = First-order rate constant was determined; format: ADME
[4] = Km was determined; format: ADME
[5] = test system: CCRF-CEM; test: Compound was evaluated for the half-maximal inhibition against human CCRF-CEM lymphoblastic leukemic cell growth; format: functional, cell-based
[6] = test system: L1210; test: Compound was evaluated for the half-maximal inhibition against mouse L1210 leukemic cell growth; format: functional, cell-based

Sequence of Thymidylate synthase (P07607 whole entry): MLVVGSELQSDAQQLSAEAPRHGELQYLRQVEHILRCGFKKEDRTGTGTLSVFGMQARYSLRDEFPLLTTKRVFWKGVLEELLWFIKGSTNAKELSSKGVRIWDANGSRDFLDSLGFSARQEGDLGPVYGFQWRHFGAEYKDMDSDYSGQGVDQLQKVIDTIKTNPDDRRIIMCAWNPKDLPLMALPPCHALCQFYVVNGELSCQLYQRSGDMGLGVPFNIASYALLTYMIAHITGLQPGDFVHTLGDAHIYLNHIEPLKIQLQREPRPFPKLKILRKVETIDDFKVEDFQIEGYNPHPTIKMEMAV

| SMILES | Rate constant [1] | Ki [2] [nM] | Rate constant [3] | Km [4] [nM] | IC50 [5] [nM] | IC50 [6] [nM] |
| --- | --- | --- | --- | --- | --- | --- |
| Nc1nc(O)c2c(n1)NCC(CCc1ccc(C(=O)NC(CCC(=O)O)C(=O)O)cc1)C2 (centres undefined) | 32 | 30 |  |  |  |  |
| Nc1nc(N)c2nc(CNc3ccc(C(=O)N[C@@H](CCC(=O)O)C(=O)O)cc3)cnc2n1 [AMINOPTERIN] |  |  | 10.1 |  |  |  |
| CN(Cc1cnc2nc(N)nc(N)c2n1)c1ccc(C(=O)N[C@@H](CCC(=O)O)C(=O)O)cc1 [METHOTREXATE] | 0.9 |  |  |  |  |  |
| Nc1nc2[nH]cc(CCc3ccc(C(=O)N[C@@H](CCC(=O)O)C(=O)O)cc3)c2c(=O)[nH]1 [PEMETREXED] | 400 | 340 |  | 800 | 16 | 22 |
